Results on 9 compounds are retold here after PubChem BioAssay (NCI).

Molecules are shown by their SMILES. Values joined by “and” are separate entries in the source; they are usually repeats but may differ in a detail not shown here. Equal values may be shown once.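 Results reflect a 48-hour exposure of cells in 96-well plates to compound at five concentrations. GI50 marks 50% less growth. Definition used: TGI = concentration required for complete inhibition of growth.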 A value given as a limit tells only on which side of the number the result lay.

Test systems include DU-145 prostate; HCC-2998 colon; HL-60(TB) leukemia; MOLT-4 leukemia; OVCAR-3 ovarian; SNB-75 CNS; SR leukemia; SNB-78 CNS; DMS 273 small cell lung.
Assay in all cases: DTP human tumour cell line panel, 48 h

For `N#C/C(=C\c1ccc(O)c(O)c1)C(=O)NCc1ccc(C(F)(F)F)cc1`, the GI50 is 16.3 µM in the experiment with DU-145 prostate; 12.1 µM in the experiment with HCC-2998 colon; 11.6 µM with HL-60(TB) leukemia; 3.92 µM with MOLT-4 leukemia; 0.507 µM in the experiment with OVCAR-3 ovarian; 13.3 µM in the experiment on SNB-75 CNS. The GI50 in the experiment with SR leukemia was 2.47 µM. For the same compound, the TGI is more than 62.3 µM in the experiment on DU-145 prostate; 24.5 µM in the experiment with HCC-2998 colon; more than 66.5 µM with HL-60(TB) leukemia; 31.7 µM in the experiment on MOLT-4 leukemia; 1.11 µM with OVCAR-3 ovarian; 55.7 µM with SNB-75 CNS. Moreover, the TGI in the experiment with SR leukemia is 6 µM.

`O/N=C1/CCCC/C1=C/C=C/c1ccccc1`: the TGI in the experiment on DU-145 prostate stood at 62.9 µM; with HCC-2998 colon, 45.2 µM; in the experiment on HL-60(TB) leukemia, 41.2 µM; in the experiment with MOLT-4 leukemia, 67.1 µM; with OVCAR-3 ovarian, 35.2 µM; in the experiment with SNB-75 CNS it was 75.3 µM. Besides, the TGI in the experiment on SNB-78 CNS is 77.7 µM; in the experiment with SR leukemia it was more than 100 µM.

For `C[C@@H](O)[C@@H](C)Oc1nc(Nc2ccc(S(=N)(=O)C3CC3)cc2)ncc1C(F)(F)F` (stereo not given in full), the GI50 is 0.0258 µM in the experiment with DU-145 prostate; 0.0465 µM in the experiment with HCC-2998 colon; 0.0183 µM with HL-60(TB) leukemia; 0.0255 µM in the experiment with MOLT-4 leukemia; 0.018 µM in the experiment with OVCAR-3 ovarian; 0.0162 µM in the experiment with SNB-75 CNS. Also, the GI50 in the experiment with SR leukemia was less than 0.0122 µM. For the same compound, the TGI in the experiment on DU-145 prostate is more than 61.8 µM; with HCC-2998 colon it was 2.72 µM; with HL-60(TB) leukemia it was 0.0544 µM; in the experiment on MOLT-4 leukemia it was 0.0816 µM; in the experiment on OVCAR-3 ovarian, 18.6 µM; in the experiment on SNB-75 CNS, 0.0554 µM. In the experiment on SR leukemia, this compound came in with a TGI of 0.0475 µM.

`CC(=O)OCCOCn1c2ccccc2c2c3c(c4c5ccccc5n(COCCOC(C)=O)c4c21)C(=O)N(Cc1ccccc1)C3=O`: the concentration for total growth inhibition (TGI) in the experiment with DMS 273 small cell lung, with HCC-2998 colon, with HL-60(TB) leukemia, with MOLT-4 leukemia, with SNB-75 CNS and in the experiment with SNB-78 CNS was more than 100 µM each time.

For `N#Cc1ncc(C(Cl)Cl)nc1Cl`, the TGI in the experiment with DU-145 prostate was more than 10 µM; in the experiment with HCC-2998 colon it was 3.06 µM; with HL-60(TB) leukemia, more than 3.75 µM; in the experiment with MOLT-4 leukemia it was more than 6.63 µM; in the experiment on OVCAR-3 ovarian, 4.59 µM; in the experiment on SNB-75 CNS, 6.64 µM. Moreover, the TGI in the experiment on SR leukemia was more than 5.84 µM.

Turning to `O=CC(OC(=O)c1ccccc1)C(OC(=O)c1ccccc1)C(COC(c1ccccc1)(c1ccccc1)c1ccccc1)OC(=O)c1ccccc1` (stereo not given), the GI50 is 15.3 µM in the experiment on DU-145 prostate; 17.4 µM in the experiment with HCC-2998 colon; 3.25 µM in the experiment with HL-60(TB) leukemia; 2.64 µM with MOLT-4 leukemia; 11 µM in the experiment on OVCAR-3 ovarian; 10.2 µM in the experiment with SNB-75 CNS. Besides, the GI50 in the experiment with SR leukemia was 1.3 µM. For the same compound, the TGI in the experiment with DU-145 prostate is 28.6 µM; in the experiment with HCC-2998 colon it was 31.5 µM; in the experiment with HL-60(TB) leukemia, 20.7 µM; in the experiment on MOLT-4 leukemia, 11.7 µM; in the experiment on OVCAR-3 ovarian it was 24.1 µM; in the experiment on SNB-75 CNS, 22.9 µM. Moreover, the TGI with SR leukemia stood at 4.03 µM.

As for `Cc1cc2c(cc1Cl)SC(N(c1ccccc1Cl)S(=O)(=O)c1ccc(Br)s1)=NS2(=O)=O`, the GI50 was 14.5 µM with DU-145 prostate; 19.7 µM in the experiment with HCC-2998 colon; 16.4 µM in the experiment on HL-60(TB) leukemia; 15.3 µM with MOLT-4 leukemia; 18.2 µM with OVCAR-3 ovarian; 17.3 µM in the experiment on SNB-75 CNS. Also, in the experiment on SR leukemia, the GI50 is 23.8 µM. The TGI in the experiment with DU-145 prostate was 33 µM; with HCC-2998 colon it was 53.4 µM; with HL-60(TB) leukemia, 41.9 µM; in the experiment with MOLT-4 leukemia, 42.5 µM; with OVCAR-3 ovarian it was 60.1 µM; in the experiment on SNB-75 CNS, 48.7 µM. Besides, the TGI with SR leukemia was 83.4 µM.

Turning to `COc1cc2c(Oc3ccc(NC(=O)C4(C(=O)Nc5ccc(F)cc5)CC4)cc3F)ccnc2cc1OCCCN1CCOCC1`, the GI50 with DU-145 prostate was 1.52 µM and 1.98 µM; in the experiment on HCC-2998 colon, 1.24 µM and 1.31 µM; in the experiment with HL-60(TB) leukemia, 0.164 µM and 0.389 µM; in the experiment on MOLT-4 leukemia it was 0.573 µM and 0.547 µM; in the experiment on OVCAR-3 ovarian, 1.46 µM and 2.25 µM; with SNB-75 CNS it was 0.175 µM and 0.15 µM. In addition, the GI50 with SR leukemia is 0.932 µM and 0.583 µM. For the same compound, the TGI was 4.39 µM and > 10 µM with DU-145 prostate; 2.62 µM and 4.31 µM in the experiment with HCC-2998 colon; 2.02 µM and 2.34 µM in the experiment on HL-60(TB) leukemia; > 24.9 µM and 5.45 µM in the experiment on MOLT-4 leukemia; 3.36 µM and > 10 µM in the experiment on OVCAR-3 ovarian; 1.88 µM and 2.16 µM in the experiment on SNB-75 CNS. Besides, the TGI in the experiment with SR leukemia is 3.45 µM and 2.78 µM.

Take `Cc1nnc(C[C@@H]2C=C(c3ccc(Cl)cc3)c3ccccc3-n3c(C)nnc32)o1`: the GI50 is 17.6 µM in the experiment on DU-145 prostate; 1.33 µM in the experiment on HCC-2998 colon; 0.25 µM with HL-60(TB) leukemia; 8.35 µM in the experiment with MOLT-4 leukemia; 1.08 µM in the experiment on OVCAR-3 ovarian; 0.048 µM in the experiment with SNB-75 CNS. In addition, the concentration for 50% growth inhibition (GI50) with SR leukemia was 0.27 µM. In addition, the TGI is more than 100 µM with DU-145 prostate; 18.6 µM in the experiment with HCC-2998 colon; 35.5 µM with HL-60(TB) leukemia; more than 100 µM with MOLT-4 leukemia; 19.8 µM in the experiment on OVCAR-3 ovarian; 47.3 µM with SNB-75 CNS. In the experiment with SR leukemia, this compound registered a TGI of more than 70.6 µM.

As usually defined, the GI50 is the concentration giving 50% growth inhibition. The TGI is the concentration at which net growth stops.
